From BindingDB's records for patent US20240400579 (Genentech, 2024)

Legend:
[1] = biological target: T1, 3-beta-hydroxysteroid-Delta(8),Delta(7)-isomerase (Homo sapiens, UniProt Q15125); experiment: Determination of Binding Affinity to EBP-7-Dehydrocholesterol Reductase
Method: Compounds were prepared in a 96-well U bottom plate using an Echo550 machine and 10 mM compound DMSO stock solution, followed by an 8-dose 5-fold serial dilutions protocol with final testing compound concentration ranging from 0.06 to 5000 nM, with DMSO back fill to 100 nL/well and n=2. […] The UniFilter-96 GF/B plates were pre-treated by adding 50 μl/well of 0.3% (v/v) PEI to UniFilter-96 GF/B plates. The plates were sealed and incubated at 4° C. for 3 hrs. Then, the plates were washed with ice-cold assay buffer 3 times. The radioligand binding assay was prepared by adding assay buffer diluted hEBP-DHCR7 membrane at 66.7 μg/ml x 150 μl/well into the 96-well compound plate to reach 10 μg membrane per well. Then, the assay buffer diluted [3H]-Compound 118A* was added at 25 nM×50 μl/well. Following this, the plate was centrifuged at 1000 rpm for 30 secs. The plate was then sealed and agitated at 600 rpm at 22° C. for 5 min, and then incubated at 22° C. for 3 hrs. The incubation was stopped by transferring the binding solution to the pre-treated UniFilter-96 GF/B plate, vacuum filtrated, and then washed four times with ice-cold assay buffer. Following this, the plates were dried at 37° C. for 45 min. The plates were then sealed at the bottom. 40 μl/well of scintillation cocktail was added to the plates. A MicroBeta2 microplate counter was then used to read the plate and analyze the data. For reference and test compounds, the results are expressed as % Inhibition, using the normalization equation: N=100-100×(U−C2)/(C1−C2), where U is the unknown value, C1 is the average of high controls, and C2 is the average value of low controls. The IC50 was determined by fitting percentage of inhibition as a function of compound concentrations with Hill equation using XLfit.

[2] = biological target: T1, 3-beta-hydroxysteroid-Delta(8),Delta(7)-isomerase; experiment: Determination of Binding Affinity to EBP
Method: This binding solution was centrifuged at 400 g for 5 minutes to collect the bead/membrane mixture. After re-suspending the pellet in binding buffer at the same calculated volume with 0.01% BSA (Sigma A1933), the bead/membrane mixture was added in 384-well low-binding surface plate (PerkinElmer Cat #6057480) at 25 i/well. Radioligand at different concentrations with and without the non-radio-labeled same ligand 5 uM (for nonspecific and total signal, respectively) was added to bring final volume to 50 i/well with DMSO concentration at 0.1%. At equilibrium (3 hours after ligand addition), radiometric signal CPM was counted by using a Microbeta2 microplate counter (Perkinelmer).

T1 sequence (Q15125 whole entry): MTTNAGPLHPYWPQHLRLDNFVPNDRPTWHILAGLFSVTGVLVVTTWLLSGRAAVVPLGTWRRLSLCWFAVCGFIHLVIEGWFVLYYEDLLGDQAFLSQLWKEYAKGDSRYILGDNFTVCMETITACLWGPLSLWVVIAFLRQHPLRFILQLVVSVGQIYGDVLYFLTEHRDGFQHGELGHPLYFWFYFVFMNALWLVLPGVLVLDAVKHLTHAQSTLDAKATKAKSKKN

Ki [1] | Ki [2] | Compound
9.45 nM |  | O=S1(=O)CC2(CCN(CCCc3ccc(C(F)(F)F)cc3)C2)C1 [US20240400579, Example 113]
18.5 nM |  | C[C@H](Cc1ccc(C2CCCCO2)c(Cl)c1)CN1CCC2(C1)CS(=O)(=O)C2 (stereo partly specified) [US20240400579, Example 124A]
25.3 nM |  | C[C@@H](Cc1ccc([C@@H]2CCCCO2)c(Cl)c1)CN1CCC2(C1)CS(=O)(=O)C2 [US20240400579, Example 124B]
4.02 nM | 56 nM | CC(C)(Cc1ccc(C(F)(F)F)cc1)CN1CCC2(C1)CS(=O)(=O)C2 [US20240400579, Example 125]
13.1 nM |  | O=S1(=O)CC2(CCN(CCOc3cnc(C(F)(F)F)c(Cl)c3)CC2)C1 [US20240400579, Example 242]
